Data reported in patent US20240384350A1, “METHODS OF TREATING CANCER WITH KINASE INHIBITORS” (BOARD OF REGENTS, THE UNIVERSITY OF TEXAS SYSTEM, priority 2021, published 2024).

Tests used:
Test in all cases: Ba/F3 drug screening, Cell Titer Glo, IC50 Mut/WT
Format in all cases: cell-based
[1] = target: T1, EGFR L833F (Homo sapiens, UniProt P00533, L833F); settings: Classical-Like, 72 hours
T1 construct: expressed in transfected cells; host or cells: Ba/F3 cells, retroviral pBabe-Puro vector
Procedure: (§1) Data represent the ratio of the IC50 value for a given TKI for cells with a classical-like EGFR mutation to the IC50 value for cells with wildtype EGFR.
(§2) Ba/F3 cell generation, drug screening, and IC50 approximations. Ba/F3 cells were obtained as a gift from Dr. Gordon Mills (MD Anderson Cancer Center), and maintained in RPMI (Sigma) containing 10% FBS, 1% penicillin/streptomycin, and 10 ng/ml recombinant mIL-3 (R&D Biosystems). To establish stable Ba/F3 cell lines, Ba/F3 cells were transduced with retroviruses containing mutant EGFR plasmids for 12-24 hours.
(§3) After 48-72 hours of transduction, 2 μg/ml puromycin (Invitrogen) was added to Ba/F3 cell lines in complete RPMI. To select for EGFR positive cell lines, cells were stained with PE-EGFR (Biolegend) and sorted by FACS. After sorting, EGFR positive cells were maintained in RPMI containing 10% FBS, 1% penicillin/streptomycin, and 1 ng/ml EGF to support cell viability. […] Shortly, cells were plated in 384-well plates (Greiner Bio-One) at 2000-3000 cells per well in technical triplicate. Seven different concentrations of TKIs or DMSO vehicle were added to reach a final volume of 40 μL per well. After 72 hours, 11 μL of Cell Titer Glo (Promega) was added to each well. Plates were incubated for a minimum of 10 minutes, and bioluminescence was determined using a FLUOstar OPTIMA plate reader (BMG LABTECH). Raw bioluminescence values were normalized to DMSO control treated cells, and values were plotted in GraphPad Prism. […] Drug screens were performed in technical triplicate on each plate and either duplicate or triplicate biological replicates.

[2] = target: T2, EGFR L858R/V834L (Homo sapiens, UniProt P00533, L858R/V834L); settings: Classical-Like, 72 hours
T2 construct: expressed in transfected cells; host or cells: Ba/F3 cells, retroviral pBabe-Puro vector
Procedure: as §1, §2, §3

[3] = target: T3, EGFR Ex19del (Homo sapiens, UniProt P00533, DEL746-750); settings: Classical-Like, 72 hours
T3 construct: expressed in transfected cells; host or cells: Ba/F3 cells, retroviral pBabe-Puro vector

[4] = target: T4, EGFR L858R (Homo sapiens, UniProt P00533, L858R); settings: Classical-Like, 72 hours
T4 construct: expressed in transfected cells; host or cells: Ba/F3 cells, retroviral pBabe-Puro vector

[5] = target: T5, EGFR L858R S784F (Homo sapiens, UniProt P00533, L858R/S784F); settings: Classical-Like, 72 hours
T5 construct: expressed in transfected cells; host or cells: Ba/F3 cells, retroviral pBabe-Puro vector (vector made by GeneScript from EGFR L858R)
Procedure: as §1, §2, §3

[6] = target: T6, EGFR A767insASV (Homo sapiens, UniProt P00533, DUP767-769); settings: Ex20, 72 hours
T6 construct: expressed in transfected cells; host or cells: Ba/F3 cells, retroviral pBabe-Puro vector
Procedure: Data represent the ratio of the IC50 value for a given TKI for cells with an ex20ins EGFR mutation to the IC50 value for cells with wildtype EGFR.
as §2
After 48-72 hours of transduction, 2 μg/ml puromycin (Invitrogen) was added to Ba/F3 cell lines in complete RPMI. To select for EGFR positive cell lines, cells were stained with PE-EGFR (Biolegend) and sorted by FACS. After sorting, EGFR positive cells were maintained in RPMI containing 10% FBS, 1% penicillin/streptomycin, and 1 ng/ml EGF to support cell viability. Drug screening was performed as previously described^41,42. Shortly, cells were plated in 384-well plates (Greiner Bio-One) at 2000-3000 cells per well in technical triplicate. Seven different concentrations of TKIs or DMSO vehicle were added to reach a final volume of 40 μL per well. After 72 hours, 11 μL of Cell Titer Glo (Promega) was added to each well. Plates were incubated for a minimum of 10 minutes, and bioluminescence was determined using a FLUOstar OPTIMA plate reader (BMG LABTECH). Raw bioluminescence values were normalized to DMSO control treated cells, and values were plotted in GraphPad Prism. […] Drug screens were performed in technical triplicate on each plate and either duplicate or triplicate biological replicates. […] Statistical differences between groups were determined by ANOVA as described in the figure legends.

[7] = target: T7, EGFR S768dupSVD V769M (Homo sapiens, UniProt P00533, INS768MDS/V769M); settings: Ex20, 72 hours
T7 construct: expressed in transfected cells; host or cells: Ba/F3 cells, retroviral pBabe-Puro vector (vector made by GeneScript from EGFR S768dupSVD, c.2305G > A)

[8] = target: T8, EGFR H773insNPH (Homo sapiens, UniProt P00533, INS773NPH); settings: Ex20, 72 hours
T8 construct: expressed in transfected cells; host or cells: Ba/F3 cells, retroviral pBabe-Puro vector

[9] = target: T9, EGFR L747_K754del insATSPE (Homo sapiens, UniProt P00533, DEL747-749/K754E); settings: T790M-like-3S, 72 hours
T9 construct: expressed in transfected cells; host or cells: Ba/F3 cells, retroviral pBabe-Puro vector
Procedure: (§4) Data represent the ratio of the IC50 value for a given TKI for cells with a T790M-like-3S EGFR mutation to the IC50 value for cells with wildtype EGFR.
as §2
(§5) After 48-72 hours of transduction, 2 μg/ml puromycin (Invitrogen) was added to Ba/F3 cell lines in complete RPMI. To select for EGFR positive cell lines, cells were stained with PE-EGFR (Biolegend) and sorted by FACS. After sorting, EGFR positive cells were maintained in RPMI containing 10% FBS, 1% penicillin/streptomycin, and 1 ng/ml EGF to support cell viability. Drug screening was performed as previously described^41,42. Shortly, cells were plated in 384-well plates (Greiner Bio-One) at 2000-3000 cells per well in technical triplicate. Seven different concentrations of TKIs or DMSO vehicle were added to reach a final volume of 40 μL per well. After 72 hours, 11 μL of Cell Titer Glo (Promega) was added to each well. Plates were incubated for a minimum of 10 minutes, and bioluminescence was determined using a FLUOstar OPTIMA plate reader (BMG LABTECH). Raw bioluminescence values were normalized to DMSO control treated cells, and values were plotted in GraphPad Prism. […] Drug screens were performed in technical triplicate on each plate and either duplicate or triplicate biological replicates.

[10] = target: T10, EGFR L858R/T790M (Homo sapiens, UniProt P00533, L858R/T790M); settings: T790M-like-3S, 72 hours
T10 construct: expressed in transfected cells; host or cells: Ba/F3
Procedure: as §4, §2, §5

[11] = target: T11, EGFR G719A T790M (Homo sapiens, UniProt P00533, G719A/T790M); settings: T790M-like-3S, 72 hours
T11 construct: expressed in transfected cells; host or cells: Ba/F3
Procedure: as §4, §2, §5

[12] = target: T12, EGFR G719S T790M (Homo sapiens, UniProt P00533, G719S/T790M); settings: T790M-like-3S, 72 hours
T12 construct: expressed in transfected cells; host or cells: Ba/F3

[13] = target: T13, EGFR S768I/T790M (Homo sapiens, UniProt P00533, S768I/T790M); settings: T790M-like-3S, 72 hours
T13 construct: expressed in transfected cells; host or cells: Ba/F3

[14] = target: T14, EGFR Ex19del/T790M/G724S (Homo sapiens, UniProt P00533, DEL746-750/G724S/T790M); settings: T790M-like-3S, 72 hours
T14 construct: expressed in transfected cells; host or cells: Ba/F3
Procedure: as §4, §2, §5

[15] = target: T15, EGFR G724S T790M (Homo sapiens, UniProt P00533, G724S/T790M); settings: T790M-like-3R, 72 hours
T15 construct: expressed in transfected cells; host or cells: Ba/F3

[16] = target: T16, EGFR E709_T710del insD (Homo sapiens, UniProt P00533, DEL709-709/T710D); settings: PACC; E709_T710del insD; Ba/F3; 72 hours
T16 construct: expressed in transfected cells; host or cells: Ba/F3

[17] = target: T17, EGFR E709A G719S (Homo sapiens, UniProt P00533, E709A/G719S); settings: PACC; E709A G719S; Ba/F3; 72 hours
T17 construct: expressed in transfected cells; host or cells: Ba/F3
Procedure: (§6) Data represent the ratio of the IC50 value for a given TKI for cells with a PACC EGFR mutation to the IC50 value for cells with wildtype EGFR.
as §2, §5

[18] = target: T18, EGFR E709A (Homo sapiens, UniProt P00533, E709A); settings: PACC; E709A; Ba/F3; 72 hours
T18 construct: expressed in transfected cells; host or cells: Ba/F3
Procedure: as §6, §2, §5

[19] = target: T19, EGFR L718V (Homo sapiens, UniProt P00533, L718V); settings: PACC; L718V; Ba/F3; 72 hours
T19 construct: expressed in transfected cells; host or cells: Ba/F3
Procedure: as §6, §2, §5

[20] = target: T20, EGFR G719A/R776C (Homo sapiens, UniProt P00533, G719A/R776C); settings: PACC; G719A/R776C; Ba/F3; 72 hours
T20 construct: expressed in transfected cells; host or cells: Ba/F3

[21] = target: T21, EGFR G724S (Homo sapiens, UniProt P00533, G724S); settings: PACC; G724S; Ba/F3; 72 hours
T21 construct: expressed in transfected cells; host or cells: Ba/F3
Procedure: as §6, §2, §5

[22] = target: T22, EGFR V774M (Homo sapiens, UniProt P00533, V774M); settings: PACC; V774M; Ba/F3; 72 hours
T22 construct: host or cells: Ba/F3
Procedure: as §6, §2, §5

[23] = target: T23, EGFR L858R L718Q (Homo sapiens, UniProt P00533, L718Q/L858R); settings: PACC; L858R L718Q; Ba/F3; 72 hours
T23 construct: host or cells: Ba/F3
Procedure: as §6, §2, §5

[24] = target: T24, EGFR Ex19del G724S (Homo sapiens, UniProt P00533, DEL746-750/G724S); settings: PACC; Ex19del G724S; Ba/F3; 72 hours
T24 construct: expressed in transfected cells; host or cells: Ba/F3
Procedure: as §6, §2, §5

[25] = target: T25, EGFR L858R/C797S (Homo sapiens, UniProt P00533, C797S/L858R); settings: PACC; L858R/C797S; Ba/F3; 72 hours
T25 construct: expressed in transfected cells; host or cells: Ba/F3

[26] = target: T26, EGFR Ex19del T854I (Homo sapiens, UniProt P00533, DEL746-750/T854I); settings: PACC; Ex19del T854I; Ba/F3; 72 hours
T26 construct: expressed in transfected cells; host or cells: Ba/F3 (retroviral transduction, pBabe-Puro based vectors)
Procedure: as §6, §2, §5

## COc1cc2ncnc(Nc3cccc(Cl)c3F)c2cc1OC(=O)N1CCN(C)C[C@H]1C [AZD3759]
[1]
  ratio of IC50 for cells with mutant EGFR to IC50 for cells with wildtype EGFR (Mut/WT): 0.1249
[2]
  ratio of IC50 for cells with mutant EGFR to IC50 for cells with wildtype EGFR (Mut/WT): 0.002241
[3]
  ratio of IC50 for cells with mutant EGFR to IC50 for cells with wildtype EGFR (Mut/WT): 0.0001195
[4]
  ratio of IC50 for cells with mutant EGFR to IC50 for cells with wildtype EGFR (Mut/WT): 0.00585
[5]
  ratio of IC50 for cells with mutant EGFR to IC50 for cells with wildtype EGFR (Mut/WT): 0.01546
[6]
  ratio of IC50 for cells with mutant EGFR to IC50 for cells with wildtype EGFR (Mut/WT): 4.154
[7]
  ratio of IC50 for cells with mutant EGFR to IC50 for cells with wildtype EGFR (Mut/WT): 1.659
[8]
  ratio of IC50 for cells with mutant EGFR to IC50 for cells with wildtype EGFR (Mut/WT): 1.561
[9]
  ratio of IC50 for cells with mutant EGFR to IC50 for cells with wildtype EGFR (Mut/WT): 4.604
[10]
  ratio of IC50 for cells with mutant EGFR to IC50 for cells with wildtype EGFR (Mut/WT): 6.744
[11]
  ratio of IC50 for cells with mutant EGFR to IC50 for cells with wildtype EGFR (Mut/WT): 9.625
[12]
  ratio of IC50 for cells with mutant EGFR to IC50 for cells with wildtype EGFR (Mut/WT): 8.021
[13]
  ratio of IC50 for cells with mutant EGFR to IC50 for cells with wildtype EGFR (Mut/WT): 7.218
[14]
  ratio of IC50 for cells with mutant EGFR to IC50 for cells with wildtype EGFR (Mut/WT): 4.645
[15]
  ratio of IC50 for cells with mutant EGFR to IC50 for cells with wildtype EGFR (Mut/WT): 7.7
[16]
  ratio of IC50 for cells with mutant EGFR to IC50 for cells with wildtype EGFR (Mut/WT): 0.2123
[17]
  ratio of IC50 for cells with mutant EGFR to IC50 for cells with wildtype EGFR (Mut/WT): 0.2131
[18]
  ratio of IC50 for cells with mutant EGFR to IC50 for cells with wildtype EGFR (Mut/WT): 0.1241
[19]
  ratio of IC50 for cells with mutant EGFR to IC50 for cells with wildtype EGFR (Mut/WT): 0.6898
[20]
  ratio of IC50 for cells with mutant EGFR to IC50 for cells with wildtype EGFR (Mut/WT): 0.2006
[21]
  ratio of IC50 for cells with mutant EGFR to IC50 for cells with wildtype EGFR (Mut/WT): 0.01105
[22]
  ratio of IC50 for cells with mutant EGFR to IC50 for cells with wildtype EGFR (Mut/WT): 0.3139
[23]
  ratio of IC50 for cells with mutant EGFR to IC50 for cells with wildtype EGFR (Mut/WT): 0.3765
[24]
  ratio of IC50 for cells with mutant EGFR to IC50 for cells with wildtype EGFR (Mut/WT): 4.812
[25]
  ratio of IC50 for cells with mutant EGFR to IC50 for cells with wildtype EGFR (Mut/WT): 0.001895
[26]
  ratio of IC50 for cells with mutant EGFR to IC50 for cells with wildtype EGFR (Mut/WT): 1.509
